Assays:
[1] = test system: healthy subjects; assay: Phase 1 study: Five Dimension Altered States of Consciousness questionnaire (5D-ASC); type: in vivo, human; conditions: Post-Treatment Day 0; Psilocybin 10 mg
Source text: In some embodiments, the Five Dimension Altered States of Consciousness questionnaire (5D-ASC) is utilized to evaluate the safety and/or efficacy of psilocybin. […] The 5 dimensions include oceanic boundlessness, anxious ego dissolution, visionary restructuralization, auditory alterations and reduction of vigilance.

[2] = test system: healthy subjects; assay: Phase 1 study in healthy subjects: adverse events and acute effects; type: in vivo, human
Protocol: A Phase 1 randomized, double-blind, placebo-controlled study to evaluate the effect of psilocybin on cognitive and emotional processing as compared to placebo in healthy volunteers was conducted. The study investigated the short-term (Day 7) and long-term (Day 28) effects of moderate (10 mg) and high doses (25 mg) of psilocybin on key domains of cognition, such as episodic memory, attention, working and spatial memory, social cognition and elements of executive function, including cognitive flexibility.
90 healthy subjects were studied. Approximately 50% of the subjects were psilocybin-naïve. For subjects with prior psilocybin experience, the last exposure was at least 1 year prior to the signing of the Informed Consent Form (ICF). Approximately 50% of the subjects were female. Subjects were stratified by sex and age (18-35 years old; >35 years old).
Each subject was assigned 1 treatment bottle containing 5 capsules packaged in a double-blind fashion, depending on the randomized treatment arm, the bottle contained one of the following: • a. Psilocybin 10 mg: 2×5-mg oral psilocybin capsules plus 3×placebo capsules • b. Psilocybin 25 mg: 5×5-mg oral psilocybin capsules • c. Placebo: 5×placebo capsules
Each 5-mg oral psilocybin capsule comprised 5 mg crystalline psilocybin in the form of Polymorph A, 12.5 mg of SMCC 50, 79.5 mg of SMCC 90, 1 mg sodium starch glycolate, 1 mg colloidal silicon dioxide, and 1 mg sodium stearyl fumarate
Adverse events: Throughout the course of the study, all AEs were monitored and recorded. Each AE was classified according to the following criteria: • i. […] Moderate: The AE produces some impairment of functioning, but is not hazardous to the subject's health. • iii. Severe: The AE produces significant impairment of functioning or incapacitation and is a definite hazard to the subject's health.
Selected Adverse Events of included: • (a) Euphoric mood • (b) Dissociative disorder • (c) Hallucination • (d) Psychotic disorder • (e) Cognitive disorder • (f) Disturbance in attention • (g) Altered mood • (h) Impairment of psychomotor skills • (i) Inappropriate affect • (j) Overdose • (k) Intentional product misuse • (l) Illusion
For example, drug-induced hepatitis that resolved without evidence of hepatic failure would not be considered life threatening even though drug-induced hepatitis can be fatal. • (c) Inpatient hospitalization or prolongation of existing hospitalization. • (d) Persistent or significant disability/incapacity. • (e) Congenital anomaly/birth defect in the offspring of a subject who received psilocybin. • (f) Other: Important medical events that may not result in death, be life-threatening, or require hospitalization, may be considered an SAE when, based upon appropriate medical judgment, they may jeopardize the subject and may require medical or surgical intervention to prevent one of the outcomes listed in this definition. […] Visits:
Visit 3 (V3): Drug Administration (Day 0): The subject was asked to eat a light breakfast at least two hours prior to coming to the clinic for study drug administration. On Day 0 (V3), the subject underwent the SSTS, had vital signs obtained, medications reviewed, AEs recorded and eligibility reviewed prior to being randomized to study drug. The study drug was administered to up to six subjects simultaneously in individual beds separated by a curtain. The subject was invited to put on eyeshades and headphones, lie down and listen to calming music for the rest of the session (six hours). The subject was supported 1:1 with a chaperone and supervised by the study psychiatrist and lead therapist.
The effects of psilocybin usually started about 20 to 30 min after administration, becoming most intense in the first 90 to 120 min and gradually subsiding in about 5 to 6 hours. […]

CN(C)CCc1c[nH]c2cccc(OP(=O)(O)O)c12 [Psilocybin, psilocybin]
5D-ASC Complex imagery, LS mean [1]: 53.0
Illusion, worst severity Moderate: Events ([2]; 10 mg): 16
Serious adverse events or adverse events that led to withdrawal ([2]; 10 mg and 25 mg, 12-week study): no serious adverse events
Selected TEAE (any), subjects N (%) ([2]; Psilocybin 10 mg (N = 30)): 27 (90.0) N (%)
Selected TEAE: Affect lability, Events ([2]; Psilocybin 10 mg (N = 30)): 5
Selected TEAE: Affect lability, subjects N (%) ([2]; Psilocybin 10 mg (N = 30)): 5 (16.7) N (%)
Selected TEAE: Change in sustained attention, Events ([2]; Psilocybin 10 mg (N = 30)): 2
Selected TEAE: Change in sustained attention, subjects N (%) ([2]; Psilocybin 10 mg (N = 30)): 2 (6.7) N (%)
Selected TEAE: Depressed mood, Events ([2]; Psilocybin 10 mg (N = 30)): 1
Selected TEAE: Depressed mood, subjects N (%) ([2]; Psilocybin 10 mg (N = 30)): 1 (3.3) N (%)
Selected TEAE: Dissociative identity disorder, Events ([2]; Psilocybin 10 mg (N = 30)): 2
Selected TEAE: Dissociative identity disorder, subjects N (%) ([2]; Psilocybin 10 mg (N = 30)): 1 (3.3) N (%)
Selected TEAE: Euphoric mood, Events ([2]; Psilocybin 10 mg (N = 30)): 7
Selected TEAE: Euphoric mood, subjects N (%) ([2]; Psilocybin 10 mg (N = 30)): 7 (23.3) N (%)
Selected TEAE: Hallucination, Events ([2]; Psilocybin 10 mg (N = 30)): 3
Selected TEAE: Hallucination, auditory, Events ([2]; Psilocybin 10 mg (N = 30)): 4
Selected TEAE: Hallucination, auditory, subjects N (%) ([2]; Psilocybin 10 mg (N = 30)): 4 (13.3) N (%)
Selected TEAE: Hallucination, gustatory, Events ([2]; Psilocybin 10 mg (N = 30)): 1
Selected TEAE: Hallucination, gustatory, subjects N (%) ([2]; Psilocybin 10 mg (N = 30)): 1 (3.3) N (%)
Selected TEAE: Hallucination, olfactory, Events ([2]; Psilocybin 10 mg (N = 30)): 1
Selected TEAE: Hallucination, olfactory, subjects N (%) ([2]; Psilocybin 10 mg (N = 30)): 1 (3.3) N (%)
Selected TEAE: Hallucination, subjects N (%) ([2]; Psilocybin 10 mg (N = 30)): 3 (10.0) N (%)
Selected TEAE: Hallucination, tactile, Events ([2]; Psilocybin 10 mg (N = 30)): 2
Selected TEAE: Hallucination, tactile, subjects N (%) ([2]; Psilocybin 10 mg (N = 30)): 2 (6.7) N (%)
Selected TEAE: Hallucination, visual, Events ([2]; Psilocybin 10 mg (N = 30)): 20
Selected TEAE: Hallucination, visual, subjects N (%) ([2]; Psilocybin 10 mg (N = 30)): 18 (60.0) N (%)
Selected TEAE: Illusion, Events ([2]; Psilocybin 10 mg (N = 30)): 25
Selected TEAE: Illusion, subjects N (%) ([2]; Psilocybin 10 mg (N = 30)): 19 (63.3) N (%)
Selected TEAE: Memory impairment, Events ([2]; Psilocybin 10 mg (N = 30)): 1
Selected TEAE: Memory impairment, subjects N (%) ([2]; Psilocybin 10 mg (N = 30)): 1 (3.3) N (%)
Selected TEAE: Mood altered, Events ([2]; Psilocybin 10 mg (N = 30)): 23
Selected TEAE: Mood altered, subjects N (%) ([2]; Psilocybin 10 mg (N = 30)): 13 (43.3) N (%)
Selected TEAE: Nervous system disorders (SOC), Events ([2]; Psilocybin 10 mg (N = 30)): 2
Selected TEAE: Nervous system disorders (SOC), subjects N (%) ([2]; Psilocybin 10 mg (N = 30)): 2 (6.7) N (%)
Selected TEAE: Psychiatric disorders (SOC), Events ([2]; Psilocybin 10 mg (N = 30)): 104
Selected TEAE: Psychiatric disorders (SOC), subjects N (%) ([2]; Psilocybin 10 mg (N = 30)): 27 (90.0) N (%)
Selected TEAE: Psychomotor skills impaired, Events ([2]; Psilocybin 10 mg (N = 30)): 1
Selected TEAE: Psychomotor skills impaired, subjects N (%) ([2]; Psilocybin 10 mg (N = 30)): 1(3.3) N (%)
Selected TEAE: Somatic hallucination, Events ([2]; Psilocybin 10 mg (N = 30)): 8
Selected TEAE: Somatic hallucination, subjects N (%) ([2]; Psilocybin 10 mg (N = 30)): 8 (26.7) N (%)
Selected TEAE: Substance-induced psychotic disorder, Events ([2]; Psilocybin 10 mg (N = 30)): 0
Selected TEAE: Substance-induced psychotic disorder, subjects N (%) ([2]; Psilocybin 10 mg (N = 30)): 0 N (%)
Selected TEAE (any), subjects N (%) ([2]; Psilocybin 25 mg (N = 30)): 27 (90.0) N (%)
Selected TEAE: Affect lability, Events ([2]; Psilocybin 25 mg (N = 30)): 3
Selected TEAE: Affect lability, subjects N (%) ([2]; Psilocybin 25 mg (N = 30)): 3 (10.0) N (%)
Selected TEAE: Change in sustained attention, Events ([2]; Psilocybin 25 mg (N = 30)): 0
Selected TEAE: Change in sustained attention, subjects N (%) ([2]; Psilocybin 25 mg (N = 30)): 0 N (%)
Selected TEAE: Depressed mood, Events ([2]; Psilocybin 25 mg (N = 30)): 2
Selected TEAE: Depressed mood, subjects N (%) ([2]; Psilocybin 25 mg (N = 30)): 2 (6.7) N (%)
Selected TEAE: Dissociative identity disorder, Events ([2]; Psilocybin 25 mg (N = 30)): 2
Selected TEAE: Dissociative identity disorder, subjects N (%) ([2]; Psilocybin 25 mg (N = 30)): 2 (6.7) N (%)
Selected TEAE: Euphoric mood, Events ([2]; Psilocybin 25 mg (N = 30)): 8
Selected TEAE: Euphoric mood, subjects N (%) ([2]; Psilocybin 25 mg (N = 30)): 7 (23.3) N (%)
Selected TEAE: Hallucination, Events ([2]; Psilocybin 25 mg (N = 30)): 2
Selected TEAE: Hallucination, auditory, Events ([2]; Psilocybin 25 mg (N = 30)): 4
Selected TEAE: Hallucination, auditory, subjects N (%) ([2]; Psilocybin 25 mg (N = 30)): 4 (13.3) N (%)
Selected TEAE: Hallucination, gustatory, Events ([2]; Psilocybin 25 mg (N = 30)): 0
Selected TEAE: Hallucination, gustatory, subjects N (%) ([2]; Psilocybin 25 mg (N = 30)): 0 N (%)
Selected TEAE: Hallucination, olfactory, Events ([2]; Psilocybin 25 mg (N = 30)): 1
Selected TEAE: Hallucination, olfactory, subjects N (%) ([2]; Psilocybin 25 mg (N = 30)): 1 (3.3) N (%)
Selected TEAE: Hallucination, subjects N (%) ([2]; Psilocybin 25 mg (N = 30)): 2 (6.7) N (%)
Selected TEAE: Hallucination, tactile, Events ([2]; Psilocybin 25 mg (N = 30)): 4
Selected TEAE: Hallucination, tactile, subjects N (%) ([2]; Psilocybin 25 mg (N = 30)): 4 (13.3) N (%)
Selected TEAE: Hallucination, visual, Events ([2]; Psilocybin 25 mg (N = 30)): 22
Selected TEAE: Hallucination, visual, subjects N (%) ([2]; Psilocybin 25 mg (N = 30)): 21 (70.0) N (%)
Selected TEAE: Illusion, Events ([2]; Psilocybin 25 mg (N = 30)): 26
Selected TEAE: Illusion, subjects N (%) ([2]; Psilocybin 25 mg (N = 30)): 18 (60.0) N (%)
Selected TEAE: Memory impairment, Events ([2]; Psilocybin 25 mg (N = 30)): 0
Selected TEAE: Memory impairment, subjects N (%) ([2]; Psilocybin 25 mg (N = 30)): 0 N (%)
Selected TEAE: Mood altered, Events ([2]; Psilocybin 25 mg (N = 30)): 25
Selected TEAE: Mood altered, subjects N (%) ([2]; Psilocybin 25 mg (N = 30)): 15 (50.0) N (%)
Selected TEAE: Nervous system disorders (SOC), Events ([2]; Psilocybin 25 mg (N = 30)): 0
Selected TEAE: Nervous system disorders (SOC), subjects N (%) ([2]; Psilocybin 25 mg (N = 30)): 0 N (%)
Selected TEAE: Psychiatric disorders (SOC), Events ([2]; Psilocybin 25 mg (N = 30)): 106
Selected TEAE: Psychiatric disorders (SOC), subjects N (%) ([2]; Psilocybin 25 mg (N = 30)): 27 (90.0) N (%)
Selected TEAE: Psychomotor skills impaired, Events ([2]; Psilocybin 25 mg (N = 30)): 0
Selected TEAE: Psychomotor skills impaired, subjects N (%) ([2]; Psilocybin 25 mg (N = 30)): 0 N (%)
Selected TEAE: Somatic hallucination, Events ([2]; Psilocybin 25 mg (N = 30)): 6
Selected TEAE: Somatic hallucination, subjects N (%) ([2]; Psilocybin 25 mg (N = 30)): 5 (16.7) N (%)
Selected TEAE: Substance-induced psychotic disorder, Events ([2]; Psilocybin 25 mg (N = 30)): 1
Selected TEAE: Substance-induced psychotic disorder, subjects N (%) ([2]; Psilocybin 25 mg (N = 30)): 1 (3.3) N (%)
